Measured values reported in patent US20260306490A1, “PIM1 INHIBITOR FOR TREATING MYELOPROLIFERATIVE NEOPLASMS” (Sumitomo Pharma America, Inc., priority 2022, published 2026).
Like-named read-outs stand apart in the source and are kept apart here.

Columns and labels:
R/R MM = conditions: n = 79; cited from earlier work
PIM1 = conditions: cited from earlier work
[1] = system: hematology parameters (platelet counts); assay: CGLP preclinical dog study, hematology parameters; format: in vivo
PIM2 = conditions: cited from earlier work
PIM3 = conditions: cited from earlier work
[2] = system: human erythroid progenitors (CFU-E, BFU-E); assay: Colony forming cell assay, human erythroid progenitor (CFU-E, BFU-E) proliferation; format: cell-based; conditions: 336 h, single agent, 14 days, CFU-E and BFU-E
Experimental: (§1) Clonogenic progenitors of human erythroid (CFU-E, BFU-E), granulocyte-monocyte (CFU-GM), and multipotential (CFU-GEMM) lineages were assessed in a semi-solid methylcellulose-based media formulation containing rhIL-3 (10 ng/mL), rhGM-SCF (10 ng/mL), rhSCF (50 ng/mL), and Epo (3 U/mL).
(§2) In addition, 5-FU was evaluated at 1.0, 0.1 and 0.01 μg/mL as a positive control for toxicity.
(§3) Normal human bone marrow light density cells (lot #0210901), derived from normal bone marrow, (Lonza, Maryland) and qualified at ReachBio, were stored at −152° C. until required for the assay. On the day of the experiment, the cells were thawed rapidly, diluted in 10 mL of Iscove's modified Dulbecco's medium containing 10% fetal bovine serum (IMDM+10% FBS) and washed by centrifugation (approximately 1500 r.p.m. for 10 minutes at room temperature). The supernatant was discarded and the cell pellets were resuspended in a known volume of IMDM+10% FBS. A cell count (3% glacial acetic acid) and viability assessment (trypan blue exclusion test) was performed for the bone marrow sample.
Clonogenic progenitors of human megakaryocyte (CFU-Mk) were assessed in a collagen-based media formulation containing rhIL-3 (10 ng/mL), rhIL-6 (10 ng/mL), and Tpo (50 ng/mL). Clonogenic progenitors of the human erythroid (CFU-E and BFU-E), myeloid (CFU-GM), and megakaryocyte (CFU-Mk) lineages were set up in the media formulations described above. Individually, the test compounds were added to the medium to give the final desired concentrations (10, 3.33, 1, 0.333, 0.1, 0.0333, 0.01 and 0.00333 μM). […]
(§4) Human myeloid and erythroid progenitor assays were initiated at 1.2×10^4 cells per culture (lot #0210921) and the human megakaryocyte assays were initiated at 1.2×10^5 cells per culture (lot #0210921). Following 14 days in culture, erythroid and myeloid colonies were assessed microscopically in situ and scored by trained personnel. […] The colonies were assessed microscopically and scored by trained personnel and divided into the following categories based on size: CFU-Mk (3-20), CFU-Mk (21-49), and CFU-Mk (≥50).
(§5) Statistical analysis: The mean±standard deviation of three replicate cultures was calculated for both erythroid and myeloid progenitors. […]
(§6) Erythroid (CFU-E and BFU-E) and myeloid (CFU-GM) colony enumeration was performed by trained personnel. In addition, the distribution of colony types as well as general colony and cellular morphology was analyzed. The variance in colony number detected in replicate cultures was representative of the historical coefficient of variation for colony enumeration using these types of assays. The number and distribution of colonies detected in the solvent control (0.1% DMSO for single agents) was no different from the standard control (containing no compound and no DMSO). […]

[3] = system: human myeloid, erythroid and megakaryocyte progenitors; assay: Colony forming cell assays taken together (erythroid, myeloid, megakaryocyte progenitors); format: cell-based; conditions: single agents compared
Experimental: as §1, §2
Normal human bone marrow light density cells (lot #0210901), derived from normal bone marrow, (Lonza, Maryland) and qualified at ReachBio, were stored at −152° C. until required for the assay. […]
Clonogenic progenitors of human megakaryocyte (CFU-Mk) were assessed in a collagen-based media formulation containing rhIL-3 (10 ng/mL), rhIL-6 (10 ng/mL), and Tpo (50 ng/mL). […]
as §4, §5

MF patients = conditions: cited from earlier work
[4] = system: human myeloid progenitors (CFU-GM); assay: Colony forming cell assay, human myeloid (granulocyte-monocyte, CFU-GM) progenitor proliferation; format: cell-based; conditions: single agent; for IC50: Homo sapiens, 336 h, 14 days, CFU-GM
Experimental: as §1, §2, §3
(§7) Clonogenic progenitors of human megakaryocyte (CFU-Mk) were assessed in a collagen-based media formulation containing rhIL-3 (10 ng/mL), rhIL-6 (10 ng/mL), and Tpo (50 ng/mL). Clonogenic progenitors of the human erythroid (CFU-E and BFU-E), myeloid (CFU-GM), and megakaryocyte (CFU-Mk) lineages were set up in the media formulations described above. Individually, the test compounds were added to the medium to give the final desired concentrations (10, 3.33, 1, 0.333, 0.1, 0.0333, 0.01 and 0.00333 μM). […] Solvent control cultures (containing no compound but 0.1% DMSO) as well as standard controls (containing no compound and no DMSO) were also initiated. Once introduced into the matrices, the tubes were vortexed to ensure an equal distribution throughout.
(§8) Human myeloid and erythroid progenitor assays were initiated at 1.2×10^4 cells per culture (lot #0210921) and the human megakaryocyte assays were initiated at 1.2×10^5 cells per culture (lot #0210921). Following 14 days in culture, erythroid and myeloid colonies were assessed microscopically in situ and scored by trained personnel. The colonies were divided into the following categories based on size and morphology: CFU-E, BFU-E, CFU-GM, and CFU-GEMM. The human megakaryocyte cultures were transferred from the 35 mm dishes to labeled glass slides, fixed with methanol/acetone fixative, and then stained with anti-human CD41 antibody and an alkaline phosphate detection system according to manufacturers' instructions. The colonies were assessed microscopically and scored by trained personnel and divided into the following categories based on size: CFU-Mk (3-20), CFU-Mk (21-49), and CFU-Mk (≥50).
(§9) Statistical analysis: The mean±standard deviation of three replicate cultures was calculated for both erythroid and myeloid progenitors. Two-tailed standard t-tests were performed to assess if there was a difference in the number of colonies generated between solvent control and treated cultures. Due to the potential subjectivity of colony enumeration, a p value of less than 0.01 is deemed significant. To calculate the concentration of 50% inhibition of colony growth (IC50) for each compound, a dose response curve was generated plotting the log of the compound concentration versus the percentage of control colony growth using GraphPad Prism 9 software.
as §6

[5] = system: human megakaryocyte progenitors (CFU-Mk); assay: Colony forming cell assay, human megakaryocyte progenitor (CFU-Mk) proliferation; format: cell-based; conditions: for IC50: Homo sapiens, read-out: IC50, total CFU-Mk (megakaryocyte progenitor proliferation)
Experimental: as §2, §3, §7, §8, §9
Other than the test compounds being combined, the only change from the method in Example 1 was a 0.2% DMSO solvent control instead of 0.1% DMSO. The results are provided in FIGS. 2A-4C (FIGS. 2A-2C are human megakaryocytes (CFU-MK), FIGS. 3A-3C are human erythroid (CFU-E, BFU-E), and FIGS. 4A-4C are human granulocyte-monocyte (CFU-GM).

R/R MF = conditions: <50 × 10^9/L PLT, monotherapy; cited from earlier work
Solid tumor = conditions: n = 35; cited from earlier work
R/R AML = conditions: R/R AML, n = 32; cited from earlier work
[6] = COMFORT 1, monotherapy 5-25 mg BID, N = 155
[7] = PERSIST 2, monotherapy 200 mg BID, N = 106

C[C@@H]1C[C@H](N)C[C@H](c2ccncc2NC(=O)c2ccc(F)c(-c3c(F)cccc3F)n2)C1 [PIM447]
Hem AE, G3+ anemia (R/R MM): G3+ anemia (20%), | Hem AE, G3+ neutropenia (R/R MM): (20%) | Hem AE, G3+ thrombocytopenia (R/R MM): (33%) | Non-hem AE, G3+ diarrhea (R/R MM): (6.3%), | Non-hem AE, pneumonia (R/R MM): pneumonia (7.6%)

CN1CCC(CNc2ccc3ncc(-c4cccc(OC(F)(F)F)c4)n3n2)CC1 [Compound (2)]
IC50 (PIM1; unit inferred, read-out: PIM1 IC50): […] | hematology parameters ([1]; 10 mg/kg/day, either sex): not considered to be altered | platelet counts (PLT) increase ([1]; 30 mg/kg/day, females): 12.1% | platelet counts (PLT) increase ([1]; 30 mg/kg/day, males): 16.5% | platelet counts (PLT) increase ([1]; 90 mg/kg/day, females): 26.3% | platelet counts (PLT) increase ([1]; 90 mg/kg/day, males): 20% | IC50 (PIM2; unit inferred, read-out: PIM2 IC50): 980 nM | IC50 (PIM3; unit inferred, read-out: PIM3 IC50): 20 nM

N#CC[C@H](C1CCCC1)n1cc(-c2ncnc3[nH]ccc23)cn1 [ruxolitinib]
IC50 [2]: 110 nM | relative potency of inhibition of progenitor proliferation [3]: most potent | TEAE Anemia, All Gr (MF patients; [6]): 96% | TEAE Anemia, ≥3 Gr (MF patients; [6]): 45% | TEAE Neutropenia, All Gr (MF patients; [6]): 19% | TEAE Neutropenia, ≥3 Gr (MF patients; [6]): 7% | TEAE Thrombocytopenia, All Gr (MF patients; [6]): 70% | TEAE Thrombocytopenia, ≥3 Gr (MF patients; [6]): 13% | IC50 [4]: 100 nM | IC50 ([5]; single agent): 200 nM | concentrations at which total CFU-Mk was (significantly) inhibited ([5]; single agent, vs solvent control): ≥ 0.033 µM | relative potency of inhibition of megakaryocyte progenitors ([5]; single agents compared): most potent

C1=C/COCc2cc(ccc2OCCN2CCCC2)Nc2nccc(n2)-c2cccc(c2)COC/1 [pacritinib]
IC50 [2]: 280 nM | TEAE Anemia, All Gr (MF patients; [7]): 24% | TEAE Anemia, ≥3 Gr (MF patients; [7]): 22% | TEAE Neutropenia, ≥3 Gr (MF patients; [7]): 7% | TEAE Thrombocytopenia, All Gr (MF patients; [7]): 34% | TEAE Thrombocytopenia, ≥3 Gr (MF patients; [7]): 32% | SVR35 at Week 24 (R/R MF): 29% | IC50 [4]: 170 nM | concentrations at which myeloid progenitor proliferation was (significantly, additionally) inhibited ([4]; vs 0.1% DMSO solvent control, p<0.01): 0.1 µM | IC50 ([5]; single agent): 340 nM

N[C@@H]1CCCN(c2c(/C=C3\SC(=O)NC3=O)cccc2-c2ccccc2)C1 [AZD1208]
IC50 (PIM1; read-out: Preclinical IC50, PIM1): […] | IC50 (PIM2; read-out: Preclinical IC50, PIM2): […] | IC50 (PIM3; read-out: Preclinical IC50, PIM3): 1.9 nM | Efficacy, stable disease for ≥6 weeks (Solid tumor): ≥6 weeks in 13 patients | Hem AE, Anemia (Solid tumor): Anemia (51%), | Hem AE, Thrombocytopenia (Solid tumor): (14-26%) | Hem AE, WBC decreased (Solid tumor): WBC decreased (26%) | Non-hem AE, diarrhea (Solid tumor): Diarrhea (83%), | Non-hem AE, nausea (Solid tumor): nausea (74%) | Non-hem AE, vomiting (Solid tumor): vomiting (54%), | Efficacy, circulating blasts (in several patients) (R/R AML): response, reduction | Hem AE, Febrile neutropenia (R/R AML): (28%) | Non-hem AE, diarrhea (R/R AML): diarrhea (44%), | Non-hem AE, nausea (R/R AML): Nausea (47%) | Non-hem AE, pneumonia (R/R AML): pneumonia (19%) | Non-hem AE, vomiting (R/R AML): vomiting (31%),
